Experimental data reported in US20110160166A1, “Therapeutic composition for the treatment and prevention of athlete's foot and fungal infections of the nail and surrounding tissues” (priority 2009, published 2011).

Experiments:
nail fungus = conditions: after 48 weeks of daily topical treatment; cited from earlier work
[1] = Excerpt: Salicylic acid USP is well known as a strongly antimicrobial pharmaceutical ingredient. It is currently approved by US FDA as an Over-the-Counter active ingredient in anti-dandruff and anti-acne medicaments. Salicylic acid is a skin and eye irritant and a keratolytic, and must be used at low concentrations when applied to human tissue.
fingernail infections = conditions: terbinafine; 6 weeks of treatment, assessment at 18 weeks after completion of therapy; cited from earlier work
[2] = target: Cytochrome P450 2D6 isozyme (Homo sapiens, UniProt P10635); conditions: cited from earlier work
toenail infections = conditions: cited from earlier work

Sequence of Cytochrome P450 2D6 isozyme (P10635 whole entry): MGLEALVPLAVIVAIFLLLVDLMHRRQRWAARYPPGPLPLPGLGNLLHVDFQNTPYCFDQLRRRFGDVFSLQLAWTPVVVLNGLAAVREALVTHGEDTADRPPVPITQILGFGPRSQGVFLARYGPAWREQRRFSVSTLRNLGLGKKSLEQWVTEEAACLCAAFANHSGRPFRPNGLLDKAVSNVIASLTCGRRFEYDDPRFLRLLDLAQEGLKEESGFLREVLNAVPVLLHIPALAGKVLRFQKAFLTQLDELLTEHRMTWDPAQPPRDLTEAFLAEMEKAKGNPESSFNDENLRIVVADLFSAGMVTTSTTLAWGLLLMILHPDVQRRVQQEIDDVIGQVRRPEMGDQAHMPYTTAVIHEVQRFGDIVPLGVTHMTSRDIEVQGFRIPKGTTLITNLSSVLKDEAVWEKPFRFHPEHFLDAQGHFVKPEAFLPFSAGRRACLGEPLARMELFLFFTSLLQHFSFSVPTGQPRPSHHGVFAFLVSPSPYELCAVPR

Question: With `Cc1cc(C2CCCCC2)n(O)c(=O)c1` [Ciclopirox 8%, Ciclopirox] as the molecule, how does the “patients who achieved clear or almost clear nails” value (nail fungus) read?
Answer: < 12%

Question: Which results are given for `O=C(O)c1ccccc1O` [Salicylic acid]?
Answer: keratolytic and irritant effects ([1]; formulated into an anhydrous base, applied to human nail and surrounding tissues): dramatically reduced or eliminated; irritation experienced by the subject ([1]; high concentrations in anhydrous base): no irritation

Question: For `CN(C/C=C/C#CC(C)(C)C)Cc1cccc2ccccc12` [terbinafine], which “cure rates for fingernail infections” value (fingernail infections) is on record?
Answer: 59-79%

Question: What about the “inhibition of Cytochrome P450 2D6 isozyme” value [2] of the same molecule?
Answer: inhibitor

Question: What about the “cure rates for toenail infections” value (toenail infections; terbinafine 250 mg oral, 12 weeks treatment, 36 weeks follow-up after completion of therapy) of the same molecule?
Answer: 38%-59%

Question: And the clinical relapse rate (toenail infections; terbinafine, toenail infections)?
Answer: ~15%
